ChEMBL document CHEMBL3351697, “Recent advances in the structural library of functionalized quinazoline and quinazolinone scaffolds: synthetic approaches and multifarious applications” (Eur J Med Chem, 2014)
In brackets after ≈: the same amount, converted by molar mass.

Legend:
[1] = system: Staphylococcus epidermidis; test: Antibacterial activity against Staphylococcus epidermidis MTCC 435 assessed as growth inhibition at 100 ug/ml by agar well diffusion method; type: functional; conditions: read-out: GI
Staphylococcus aureus = test: Antibacterial activity against Staphylococcus aureus MTCC 96 assessed as growth inhibition at 100 ug/ml by agar well diffusion method; type: functional; conditions: read-out: GI
Pseudomonas aeruginosa = test: Antibacterial activity against Pseudomonas aeruginosa MTCC 741 assessed as growth inhibition at 100 ug/ml by agar well diffusion method; type: functional; conditions: read-out: GI
Escherichia coli = test: Antibacterial activity against Escherichia coli MTCC 443 assessed as growth inhibition at 100 ug/ml by agar well diffusion method; type: functional; conditions: read-out: GI
[2] = Antiproliferative activity against human NCI60 cells; type: functional
[3] = Inhibition of alpha-glucosidase (unknown origin); design: species or system Homo sapiens
[4] = target: Proto-oncogene tyrosine-protein kinase Src (Homo sapiens, UniProt P12931); test: Inhibition of c-Src (unknown origin)
A549 = test: Antiproliferative activity against human A549 cells; type: functional, cell-based
[5] = system: Mycobacterium tuberculosis; test: Antitubercular activity against Mycobacterium tuberculosis H37Rv assessed as growth inhibition; type: functional
[6] = Antiproliferative activity against human H460 cells; type: functional, cell-based; conditions: NCI-H460
M21 = test: Antiproliferative activity against human M21 cells; type: functional, cell-based
[7] = Antiproliferative activity against human HSC3 cells; type: functional, cell-based; conditions: HSC-3
[8] = Antiproliferative activity against human CH27 cells; type: functional, cell-based
[9] = Antiproliferative activity against human Hep3B cells; type: functional, cell-based, Hep 3B2
RAW264.7 = test: Antiinflammatory activity in mouse RAW264.7 cells assessed as inhibition of LPS-induced nitric oxide production at 20 ug/ml after 24 hrs by Griess method; type: functional; conditions: RAW264.7, 24 h
SNB-75 = test: Growth inhibition of human SNB75 cells after 48 hrs by SRB assay; type: functional; conditions: SNB-75, 48 h
MCF7 [10] = test: Antiproliferative activity against human MCF7 cells
MCF7 [11] = test: Potency index, ratio of cisplatin IC50 to compound IC50 for human MCF7 cells; type: functional
[12] = target: Vascular endothelial growth factor receptor 2 (Homo sapiens, UniProt P35968); test: Inhibition of VEGFR2 (unknown origin)
[13] = Antiproliferative activity against human BGC823 cells at 10 uM by MTT assay; type: functional; conditions: BGC-823
Bcap37 [14] = test: Antiproliferative activity against human Bcap37 cells by MTT assay; type: functional, cell-based
Bcap37 [15] = test: Antiproliferative activity against human Bcap37 cells at 10 uM by MTT assay; type: functional
[16] = Antiproliferative activity against human BGC823 cells by MTT assay; type: functional, cell-based; conditions: BGC-823
PC-3 [17] = test: Induction of apoptosis in human PC3 cells at 10 uM after 72 hrs by Hoechst 33258 staining; type: functional
[18] = Antiproliferative activity against human PC3 cells at 10 uM by MTT assay; type: functional; conditions: PC-3
[19] = Antiproliferative activity against human PC3 cells by MTT assay; type: functional, cell-based; conditions: PC-3
PC-3 [20] = test: Induction of apoptosis in human PC3 cells at 1 uM after 72 hrs by Hoechst 33258 staining; type: functional
MCF7 [21] = test: Antiproliferative activity against human MCF7 cells after 48 hrs by SRB assay; type: functional, cell-based
Rattus norvegicus = test: Antiinflammatory activity in rat assessed as inhibition of carrageenan-induced paw edema at 25 to 200 mg/kg, po administered 1 hr before carrageenan challenge measured at 6 hrs; type: functional; design: scale not given: the % may be the effect or the level left; conditions: dose mg/kg 25-200
[22] = Cytotoxicity against human HCT116 cells assessed as cell viability after 24 hrs by MTT assay; type: functional, cell-based; conditions: HCT-116, 24 h
HepG2 = test: Cytotoxicity against human HepG2 cells assessed as cell viability after 24 hrs by MTT assay; type: functional, cell-based; conditions: HepG2, 24 h
[23] = Protective index, ratio of neurotoxicity in mouse by rotarod test to ED50 for inhibition of maximal electroshock-induced seizures in mouse; type: toxicity, organism-based; conditions: in vivo, read-out: PI
[24] = Inhibition of Mycobacterium tuberculosis GlmU

Chain of Vascular endothelial growth factor receptor 2 (P35968 whole entry): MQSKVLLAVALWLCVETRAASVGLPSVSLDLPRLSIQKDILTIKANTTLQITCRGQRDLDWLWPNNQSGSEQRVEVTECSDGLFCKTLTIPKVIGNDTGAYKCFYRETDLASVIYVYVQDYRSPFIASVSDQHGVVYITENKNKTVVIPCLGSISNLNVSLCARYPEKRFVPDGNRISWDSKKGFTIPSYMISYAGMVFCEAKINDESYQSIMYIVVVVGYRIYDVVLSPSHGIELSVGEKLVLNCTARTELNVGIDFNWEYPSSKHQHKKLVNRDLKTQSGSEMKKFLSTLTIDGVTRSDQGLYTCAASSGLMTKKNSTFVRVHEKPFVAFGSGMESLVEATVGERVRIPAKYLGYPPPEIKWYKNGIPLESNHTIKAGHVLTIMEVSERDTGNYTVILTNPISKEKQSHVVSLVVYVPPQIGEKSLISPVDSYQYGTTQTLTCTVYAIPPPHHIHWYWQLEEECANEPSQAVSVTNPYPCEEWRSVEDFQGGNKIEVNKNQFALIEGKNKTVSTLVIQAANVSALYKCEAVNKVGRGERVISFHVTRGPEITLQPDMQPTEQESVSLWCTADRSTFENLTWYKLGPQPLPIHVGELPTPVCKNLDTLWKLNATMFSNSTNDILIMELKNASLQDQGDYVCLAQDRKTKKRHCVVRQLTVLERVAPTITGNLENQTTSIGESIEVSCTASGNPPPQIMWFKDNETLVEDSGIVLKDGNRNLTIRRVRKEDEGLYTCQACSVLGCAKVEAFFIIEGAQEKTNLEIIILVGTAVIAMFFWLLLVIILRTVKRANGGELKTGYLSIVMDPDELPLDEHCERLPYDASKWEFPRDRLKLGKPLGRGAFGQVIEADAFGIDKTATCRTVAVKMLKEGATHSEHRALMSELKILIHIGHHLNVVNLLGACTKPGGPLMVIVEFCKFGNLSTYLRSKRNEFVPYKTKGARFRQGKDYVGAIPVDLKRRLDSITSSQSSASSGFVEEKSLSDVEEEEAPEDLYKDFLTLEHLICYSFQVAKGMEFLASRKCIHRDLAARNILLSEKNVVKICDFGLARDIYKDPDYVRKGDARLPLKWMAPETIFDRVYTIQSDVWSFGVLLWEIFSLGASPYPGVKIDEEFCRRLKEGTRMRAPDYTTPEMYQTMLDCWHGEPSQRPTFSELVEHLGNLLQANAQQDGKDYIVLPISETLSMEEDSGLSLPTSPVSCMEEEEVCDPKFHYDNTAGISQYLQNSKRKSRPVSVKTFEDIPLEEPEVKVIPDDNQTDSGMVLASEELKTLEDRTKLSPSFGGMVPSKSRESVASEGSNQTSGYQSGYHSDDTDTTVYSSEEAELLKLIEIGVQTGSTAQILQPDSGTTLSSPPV
Chain of Proto-oncogene tyrosine-protein kinase Src (P12931 2-536 limits assumed): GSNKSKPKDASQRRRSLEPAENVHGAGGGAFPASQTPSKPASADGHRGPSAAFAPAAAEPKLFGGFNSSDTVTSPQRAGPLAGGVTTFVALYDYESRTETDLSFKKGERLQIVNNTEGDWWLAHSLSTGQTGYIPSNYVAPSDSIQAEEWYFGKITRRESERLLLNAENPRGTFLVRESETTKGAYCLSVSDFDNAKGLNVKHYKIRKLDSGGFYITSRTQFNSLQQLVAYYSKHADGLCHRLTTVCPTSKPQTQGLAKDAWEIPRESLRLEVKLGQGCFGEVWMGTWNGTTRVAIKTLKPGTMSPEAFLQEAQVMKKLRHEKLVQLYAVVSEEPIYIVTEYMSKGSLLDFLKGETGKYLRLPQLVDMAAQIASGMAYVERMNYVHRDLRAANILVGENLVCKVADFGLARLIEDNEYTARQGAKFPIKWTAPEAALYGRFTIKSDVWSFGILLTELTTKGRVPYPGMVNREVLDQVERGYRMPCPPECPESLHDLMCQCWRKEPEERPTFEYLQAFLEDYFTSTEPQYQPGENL

Structure (SMILES): Cc1noc(NS(=O)(=O)c2ccc(-n3c(C)nc4c(I)cc(I)cc4c3=O)cc2)c1C
- inhibition of growth at 100 µg/mL [1]: 61.9%
- inhibition of growth at 100 µg/mL (Staphylococcus aureus): 61.9%
- inhibition of growth at 100 µg/mL (Pseudomonas aeruginosa): 61.9%
- inhibition of growth at 100 µg/mL (Escherichia coli): 61.9%

Structure (SMILES): COc1cc2c(=O)n(-c3ccccc3Cl)c(=O)[nH]c2cc1NC(=O)NCCc1ccccc1Cl
- GI50 [2]: 363 nM

Structure (SMILES): Cc1nc2c(I)cc(I)cc2c(=O)n1-c1ccc(S(=O)(=O)Nc2ncccn2)cc1
- inhibition of growth at 100 µg/mL [1]: 61.9%
- inhibition of growth at 100 µg/mL (Staphylococcus aureus): 61.9%
- inhibition of growth at 100 µg/mL (Pseudomonas aeruginosa): 61.9%
- inhibition of growth at 100 µg/mL (Escherichia coli): 61.9%

Structure (SMILES): O=c1c2cc(-c3c(Cl)cccc3Cl)ccc2nc(C2CC2)n1Cc1cccnc1
- IC50 [3]: < 10000 nM

Structure (SMILES): O=C(Cc1cccc(Br)c1)Nc1ccc2ncnc(Nc3ccc(Br)cc3)c2c1
- IC50 [4]: 27.3 nM
- IC50 (A549): 3420 nM

Structure (SMILES): NNC(=O)c1ccncc1 [ISONIAZID]
- growth inhibition (GI) [5]: 99%

Structure (SMILES): O=c1[nH]c(-c2ccc3ccccc3c2)nc2ccc(N3CCCC3)cc12
- IC50 [6]: 80 nM
- IC50 (M21): 30 nM
- IC50 [7]: 40 nM
- IC50 [8]: 50 nM
- IC50 [9]: 1350 nM

Structure (SMILES): CCn1c(=O)c2ccccc2n2nc(SC)nc12
- inhibition at 20 µg/mL (RAW264.7): 50%

Structure (SMILES): O=c1c2ccc(Cl)cc2nc(-c2ccccc2)n1/N=C/c1ccc(Cl)cc1
- GI50 (SNB-75): 2570 nM
- CC50 (SNB-75; read-out: pLC50 (the source's name) (converted)): 39800 nM
- TGI (SNB-75; read-out: pTGI (converted)): 7590 nM

Structure (SMILES): COc1cc2nccc(Oc3ccc(NC(=O)Nc4cc(C)on4)c(Cl)c3)c2cc1OC [TIVOZANIB]
- IC50 (MCF7 [10]): 380 nM

Structure (SMILES): CO[C@H]1/C=C/O[C@@]2(C)Oc3c(C)c(O)c4c(O)c(c(/C=N/N5CCN(C)CC5)c(O)c4c3C2=O)NC(=O)/C(C)=C\C=C\[C@H](C)[C@H](O)[C@@H](C)[C@@H](O)[C@@H](C)[C@H](OC(C)=O)[C@@H]1C [RIFAMPIN]
- growth inhibition (GI) [5]: 99%

Structure (SMILES): N#Cc1c(F)c(F)c2nc(-c3ccc(C(F)(F)F)cc3)nc(N)c2c1F
- Ratio IC50 (MCF7 [11]): <=40

Structure (SMILES): O=C(Nc1ccc(Nc2ccc([N+](=O)[O-])c3ncnc(O)c23)cc1)Nc1ccc(C(F)(F)F)cc1Cl
- IC50 [12]: 12 nM

Structure (SMILES): CSc1nc2nc(Cl)c3ccccc3n2n1
- inhibition at 20 µg/mL (RAW264.7): 50%

Structure (SMILES): COc1cc2ncnc(NCCc3ccccc3F)c2c(OC)c1OC
- inhibition at 10 µM [13]: 88.2%
- IC50 (Bcap37 [14]): 3100 nM
- inhibition at 10 µM (Bcap37 [15]): 90.4%
- IC50 [16]: 3200 nM
- Activity (PC-3 [17]): 31.8%
- inhibition at 10 µM [18]: 90.6%
- IC50 [19]: 6200 nM
- Activity (PC-3 [20]): 11.6%

Structure (SMILES): COc1cc2ncnc(Nc3cccc(Br)c3)c2cc1OC
- IC50 [19]: 8300 nM

Structure (SMILES): COc1ccc2nc(-c3ccc4ccccc4c3)[nH]c(=O)c2c1
- IC50 [6]: 70 nM
- IC50 (M21): 90 nM
- IC50 [7]: 150 nM
- IC50 [8]: 90 nM
- IC50 [9]: 1940 nM

Structure (SMILES): Cc1ncc([N+](=O)[O-])n1CCOc1ncnc2ccccc12
- IC50 (MCF7 [10]): 350 nM
- IC50 [12]: 2.72 nM

Structure (SMILES): COc1cccc2c1C(=O)c1c(O)c3c(c(O)c1C2=O)C[C@@](O)(C(=O)CO)C[C@@H]3O[C@H]1C[C@H](N)[C@H](O)[C@H](C)O1 [DOXORUBICIN]
- IC50 (MCF7 [21]): 5490 nM

Structure (SMILES): COc1cc2c(=O)n(-c3ccccc3)c(=O)[nH]c2cc1NC(=O)NCCc1ccccc1Cl
- GI50 [2]: 794 nM

Structure (SMILES): CC(=O)NS(=O)(=O)c1ccc(-n2c(C)nc3c(I)cc(I)cc3c2=O)cc1
- Activity (Rattus norvegicus): 74%

Structure (SMILES): O=c1c2cc(Br)cc(Br)c2nc(-c2ccccc2)n1-c1ccc(C2=NN(c3ccccc3)C(Cc3ccccc3)C2)cc1 (centres undefined)
- IC50 (MCF7 [10]): 1.7 µg/mL

Structure (SMILES): CCOc1nc2nc(SC)nn2c2ccccc12
- IC50 [22]: 17.4 µg/mL (≈ 66.8 µM)
- IC50 (HepG2): 19.2 µg/mL (≈ 73.8 µM)

Structure (SMILES): Nc1nnc2c3ccccc3nc(-c3ccccc3Br)n12
- selectivity ratio [23]: 5.8

Structure (SMILES): COc1cc2ncnc(Nc3ccc(NC(=O)c4cccc(O)c4)cc3)c2cc1OC
- IC50 [24]: 74000 nM

Structure (SMILES): CSc1nc2n(n1)c1ccccc1c1nnc(-c3ccncc3)n12
- IC50 [22]: 11.5 µg/mL (≈ 34.5 µM)
- IC50 (HepG2): 9.34 µg/mL (≈ 28 µM)

Structure (SMILES): O=C1CCC(=O)N1n1c(COc2ccccc2)nc2ccc(I)cc2c1=O
- IC50 (MCF7 [21]): 5490 nM
